According to patent US11390604B2 (Hoffmann-La Roche Inc., priority 2019, dated 2022):
Where a name gives a salt, the structure may show the parent alone.

tested on: Acinetobacter baumannii ATCC 17961; experiment: Antimicrobial susceptibility testing: 90% growth inhibitory concentration (IC90) determination; assay type: cell-based; details: ATCC17961, Acinetobacter baumannii ATCC 17961, Iso-Sensitest broth, read-out: ATCC 17961 IC90
In short: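 Broth microdilution in Iso-Sensitest medium, twofold series (e.g. 50 to 0.097 μM final), ~5×10^5 CFU/ml inoculum, 35±2 °C. OD600 read every 20 min over 16 h. IC90 derived from growth inhibition during logarithmic phase.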

IC90 | Structure (SMILES)
224 nM | Cn1c(-c2cn(CC3CC3)nc2C(F)(F)F)cnc1C(=O)Nc1ccc(C(=O)N2CCN(C(=O)[C@@H]3CC[C@@H](N)C3)CC2)c(Cl)c1 [Example 206, N-(4-(4-((1R,3R)-3-aminocyclopentane-1-carbonyl)piperazine-1-carbonyl)-3-chlorophenyl)-5-(1-(cyclopropylmethyl)-3-(trifluoromethyl)-1H-pyrazol-4-yl)-1-methyl-1H-imidazole-2-carboxamide]
226 nM | Cn1c(-c2cn(C3CC3)nc2C(F)(F)F)cnc1C(=O)Nc1ccc(C(=O)N2CCC(CN)CC2)c(Cl)c1 [Example 207, N-(4-(4-(aminomethyl)piperidine-1-carbonyl)-3-chlorophenyl)-5-(1-cyclopropyl-3-(trifluoromethyl)-1H-pyrazol-4-yl)-1-methyl-1H-imidazole-2-carboxamide formate]
226 nM | Cn1c(-c2cn(CC3CC3)nc2C(F)(F)F)cnc1C(=O)Nc1ccc(C(=O)N2CCN(C(=O)C3CNC3)CC2)c(Cl)c1 [Example 208, N-(4-(4-(azetidine-3-carbonyl)piperazine-1-carbonyl)-3-chlorophenyl)-5-(1-(cyclopropylmethyl)-3-(trifluoromethyl)-1H-pyrazol-4-yl)-1-methyl-1H-imidazole-2-carboxamide]
230 nM | Cn1c(-c2cn(CC3CC3)nc2C(F)(F)F)cnc1C(=O)Nc1ccc(C(=O)N2CCN(C(=O)CN)CC2)c(Cl)c1 [Example 209, N-(3-chloro-4-(4-glycylpiperazine-1-carbonyl)phenyl)-5-(1-(cyclopropylmethyl)-3-(trifluoromethyl)-1H-pyrazol-4-yl)-1-methyl-1H-imidazole-2-carboxamide]
231 nM | Cn1c(-c2cn(CC(F)F)nc2C(F)(F)F)cnc1C(=O)Nc1ccc(S(=O)(=O)N2CCN(C(=O)[C@H]3CC[C@@H](N)C3)CC2)c(Cl)c1 [Example 211, N-(4-((4-((1S,3R)-3-aminocyclopentane-1-carbonyl)piperazin-1-yl)sulfonyl)-3-chlorophenyl)-5-(1-(2,2-difluoroethyl)-3-(trifluoromethyl)-1H-pyrazol-4-yl)-1-methyl-1H-imidazole-2-carboxamide hydrochloride]
235 nM | Cn1c(-c2cn(C3CC3(F)F)nc2C(F)(F)F)cnc1C(=O)Nc1ccc(C(=O)N2CC3C(N)C3C2)c(Cl)c1 (stereo not shown) [Example 212, N-(4-(6-amino-3-azabicyclo[3.1.0]hexane-3-carbonyl)-3-chlorophenyl)-5-(1-(2,2-difluorocyclopropyl)-3-(trifluoromethyl)-1H-pyrazol-4-yl)-1-methyl-1H-imidazole-2-carboxamide formate]
240 nM | Cn1c(-c2cn(CC(F)F)nc2C(F)(F)F)cnc1C(=O)Nc1ccc(C(=O)N2CCN(C(=O)[C@H]3[C@@H]4CNC[C@@H]43)CC2)c(F)c1 [Example 213, rac-N-(4-(4-((1R,5S,6r)-3-azabicyclo[3.1.0]hexane-6-carbonyl)piperazine-1-carbonyl)-3-fluorophenyl)-5-(1-(2,2-difluoroethyl)-3-(trifluoromethyl)-1H-pyrazol-4-yl)-1-methyl-1H-imidazole-2-carboxamide]
241 nM | Cn1c(-c2cn(C3CC3)nc2C(F)(F)F)cnc1C(=O)Nc1ccc(C(=O)N2CCN(C(=O)NCC3CNC3)CC2)c(Cl)c1 [Example 214, N-(azetidin-3-ylmethyl)-4-(2-chloro-4-(5-(1-cyclopropyl-3-(trifluoromethyl)-1H-pyrazol-4-yl)-1-methyl-1H-imidazole-2-carboxamido)benzoyl)piperazine-1-carboxamide formate]
243 nM | C=CCn1cc(-c2cnc(C(=O)Nc3ccc(C(=O)NC4C5CN(C(=O)C6CCNCC6)CC54)c(Cl)c3)n2C)c(C(F)(F)F)n1 (stereo not shown) [Example 215, 5-(1-allyl-3-(trifluoromethyl)-1H-pyrazol-4-yl)-N-(3-chloro-4-((3-(piperidine-4-carbonyl)-3-azabicyclo[3.1.0]hexan-6-yl)carbamoyl)phenyl)-1-methyl-1H-imidazole-2-carboxamide formate]
243 nM | Cn1c(-c2cn(C3CC3)nc2C(F)(F)F)cnc1C(=O)Nc1ccc(C(=O)N2CCN(C(=O)N3CC(N)C3)CC2)c(Cl)c1 [Example 216, N-(4-(4-(3-aminoazetidine-1-carbonyl)piperazine-1-carbonyl)-3-chlorophenyl)-5-(1-cyclopropyl-3-(trifluoromethyl)-1H-pyrazol-4-yl)-1-methyl-1H-imidazole-2-carboxamide formate]
244 nM | Cn1c(-c2cn(C3CC3)nc2C(F)(F)F)cnc1C(=O)Nc1ccc(C(=O)N2CC[C@@H](CN)C2)c(Cl)c1 [Example 217, (S)-N-(4-(3-(aminomethyl)pyrrolidine-1-carbonyl)-3-chlorophenyl)-5-(1-cyclopropyl-3-(trifluoromethyl)-1H-pyrazol-4-yl)-1-methyl-1H-imidazole-2-carboxamide hydrochloride]
244 nM | Cn1c(-c2cn(CC3CC3)nc2C(F)(F)F)cnc1C(=O)Nc1ccc(C(=O)N2CCN(C(=O)N[C@H]3C[C@@H](N)C3)CC2)c(F)c1 [Example 218, N-((1s,3s)-3-aminocyclobutyl)-4-(4-(5-(1-(cyclopropylmethyl)-3-(trifluoromethyl)-1H-pyrazol-4-yl)-1-methyl-1H-imidazole-2-carboxamido)-2-fluorobenzoyl)piperazine-1-carboxamide; hydrochloride]
245 nM | CCc1cc(NC(=O)c2ncc(-c3cn(CC(F)F)nc3C(F)(F)F)n2C)ccc1C(=O)NCCCCCNCC(=O)OC(C)(C)C [Example 219, tert-butyl (5-(4-(5-(1-(2,2-difluoroethyl)-3-(trifluoromethyl)-1H-pyrazol-4-yl)-1-methyl-1H-imidazole-2-carboxamido)-2-ethylbenzamido)pentyl)glycinate]
245 nM | Cn1c(-c2cn(CC3CC3(F)F)nc2C(F)(F)F)cnc1C(=O)Nc1ccc(C(=O)NC2C3CN(C(=O)C4CCNCC4)CC32)c(Cl)c1 (stereo not shown) [Example 220, N-(3-chloro-4-((3-(piperidine-4-carbonyl)-3-azabicyclo[3.1.0]hexan-6-yl)carbamoyl)phenyl)-5-(1-((2,2-difluorocyclopropyl)methyl)-3-(trifluoromethyl)-1H-pyrazol-4-yl)-1-methyl-1H-imidazole-2-carboxamide formate]
246 nM | Cn1c(-c2cn(C3CC3)nc2C(F)(F)F)cnc1C(=O)Nc1ccc(C(=O)NCCCCCN)c(Cl)c1 [Example 221, N-(4-((5-aminopentyl)carbamoyl)-3-chlorophenyl)-5-(1-cyclopropyl-3-(trifluoromethyl)-1H-pyrazol-4-yl)-1-methyl-1H-imidazole-2-carboxamide hydrochloride]
250 nM | C#CCn1cc(-c2cnc(C(=O)Nc3ccc(C(=O)NCCOCC(C)(C)N)c(CC)c3)n2C)c(C(F)(F)F)n1 [Example 222, N-[4-[2-(2-amino-2-methyl-propoxy)ethylcarbamoyl]-3-ethyl-phenyl]-1-methyl-5-[1-prop-2-ynyl-3-(trifluoromethyl)pyrazol-4-yl]imidazole-2-carboxamide; formic acid]
252 nM | Cn1c(-c2cn(C3CC3)nc2C(F)(F)F)cnc1C(=O)Nc1ccc(C(=O)N2CCN(C(=O)[C@@H]3CCCNC3)CC2)c(Cl)c1 [Example 223, (R)-N-(3-chloro-4-(4-(piperidine-3-carbonyl)piperazine-1-carbonyl)phenyl)-5-(1-cyclopropyl-3-(trifluoromethyl)-1H-pyrazol-4-yl)-1-methyl-1H-imidazole-2-carboxamide hydrochloride]
256 nM | Cn1c(-c2cn(C3CC3)nc2C(F)(F)F)cnc1C(=O)Nc1ccc(C(=O)N2CCN(C(=O)C3CNC3)CC2)c(Cl)c1 [Example 224, N-(4-(4-(azetidine-3-carbonyl)piperazine-1-carbonyl)-3-chlorophenyl)-5-(1-cyclopropyl-3-(trifluoromethyl)-1H-pyrazol-4-yl)-1-methyl-1H-imidazole-2-carboxamide hydrochloride]
256 nM | Cn1c(-c2cn(C3CC3)nc2C(F)(F)F)cnc1C(=O)Nc1ccc(C(=O)N2CCN(C(=O)N[C@H]3C[C@H](N)C3)CC2)c(Cl)c1 [Example 225, N-(3-aminocyclobutyl)-4-[2-chloro-4-[[5-[1-cyclopropyl-3-(trifluoromethyl)pyrazol-4-yl]-1-methylimidazole-2-carbonyl]amino]benzoyl]pipera-zine-1-carboxamide;formic acid]
262 nM | Cn1c(-c2cn(CC3CC3)nc2C(F)(F)F)cnc1C(=O)Nc1ccc(C(=O)NC2C3CN(C(=O)C4CCNCC4)CC32)c(Cl)c1 (stereo not shown) [Example 227, N-(3-chloro-4-((3-(piperidine-4-carbonyl)-3-azabicyclo[3.1.0]hexan-6-yl)carbamoyl)phenyl)-5-(1-(cyclopropylmethyl)-3-(trifluoromethyl)-1H-pyrazol-4-yl)-1-methyl-1H-imidazole-2-carboxamide formate]
263 nM | Cn1c(-c2cn(C3CC3)nc2C(F)(F)F)cnc1C(=O)Nc1ccc(C(=O)N2CCN(CCN)CC2)c(Cl)c1 [Example 228, N-(4-(4-(2-aminoethyl)piperazine-1-carbonyl)-3-chlorophenyl)-5-(1-cyclopropyl-3-(trifluoromethyl)-1H-pyrazol-4-yl)-1-methyl-1H-imidazole-2-carboxamide formate]

same assay, conditions: Acinetobacter baumannii, ATCC17961, read-out: ATCC 17961 IC90, Acinetobacter baumannii ATCC 17961, Iso-Sensitest broth

Structure (SMILES) | IC90
Cn1c(-c2cn(C3CC4(CC4)C3)nc2C(F)(F)F)cnc1C(=O)Nc1ccc(C(=O)N2CCN(C(=O)N[C@H]3C[C@@H](N)C3)CC2)c(Cl)c1 [Example 210, rac-N-((1s,3s)-3-aminocyclobutyl)-4-(2-chloro-4-(1-methyl-5-(1-(spiro[2.3]hexan-5-yl)-3-(trifluoromethyl)-1H-pyrazol-4-yl)-1H-imidazole-2-carboxamido)benzoyl)piperazine-1-carboxamide hydrochloride] | 231 nM
